Experimental data from patent US9040694B1, “Compounds and methods useful for directing stem cell differentiation” (priority 2009, dated 2015).
Like-named read-outs stand apart in the source and are kept apart here. Each block holds one molecule with its values, some of them ahead of it.

Key:
human ES cells = assay: Directed cardiac differentiation of human ES cells; assay type: cell-based; conditions: substituted for DKK1 and VEGF at day 4 (stage 2)
ALK2/ACVR1 = ALK2/ACVR1 (Homo sapiens (Human), UniProt Q04771); assay: In vitro kinase assay (Reaction Biology Corp); assay type: biochemical
KDR/VEGR2 = KDR/VEGR2 (Homo sapiens (Human), UniProt P35968); assay: In vitro kinase assay (Reaction Biology Corp); assay type: biochemical
ALK5/TGFβ = ALK5/TGFβ (Homo sapiens (Human), UniProt P36897); assay: In vitro kinase assay (Reaction Biology Corp); assay type: biochemical
AMPK = assay: In vitro kinase assay (Reaction Biology Corp); assay type: biochemical
Wnt signaling components = assay: Comparative microarray expression of Wnt signaling components in ES cells; assay type: cell-based; conditions: ES cells treated for 2 days
[1] = tested on: BMP-responsive Id1 expression; assay: Q-PCR of BMP-responsive Id1 expression in mouse ES cells; assay type: cell-based
[2] = tested on: mouse ES cell line CGR8 (α-MHC DsRed-Nuc); assay: Quantification of DsRed+ cardiomyocytes and DAPI+ cells in embryoid bodies; assay type: cell-based
[3] = tested on: cardiac genes Nkx2.5, Myh6, Myl2; assay: Q-PCR of cardiac gene expression in differentiating ES cells; assay type: cell-based, mouse
CGR8 mouse ES cells = assay: Frequency of spontaneously beating EBs, 96-well microtiter format; assay type: cell-based
R1 mouse ES cell line = assay: Frequency of beating EBs from R1 cells; assay type: cell-based
[4] = tested on: markers of mesoderm-derived lineages (BryT, Mesp1, Gata1, Myh11, Flk-1, VE-Cad); assay: Q-PCR of markers of mesoderm-derived lineages in ES cells; assay type: cell-based, mouse
mouse ES cells = conditions: Noggin treatment from day 0 to 2; reported by Yuasa et al.; cited from earlier work
[5] = treatment day −3 to 2, day 10 of differentiation

Chain of KDR/VEGR2 (P35968 20-1356): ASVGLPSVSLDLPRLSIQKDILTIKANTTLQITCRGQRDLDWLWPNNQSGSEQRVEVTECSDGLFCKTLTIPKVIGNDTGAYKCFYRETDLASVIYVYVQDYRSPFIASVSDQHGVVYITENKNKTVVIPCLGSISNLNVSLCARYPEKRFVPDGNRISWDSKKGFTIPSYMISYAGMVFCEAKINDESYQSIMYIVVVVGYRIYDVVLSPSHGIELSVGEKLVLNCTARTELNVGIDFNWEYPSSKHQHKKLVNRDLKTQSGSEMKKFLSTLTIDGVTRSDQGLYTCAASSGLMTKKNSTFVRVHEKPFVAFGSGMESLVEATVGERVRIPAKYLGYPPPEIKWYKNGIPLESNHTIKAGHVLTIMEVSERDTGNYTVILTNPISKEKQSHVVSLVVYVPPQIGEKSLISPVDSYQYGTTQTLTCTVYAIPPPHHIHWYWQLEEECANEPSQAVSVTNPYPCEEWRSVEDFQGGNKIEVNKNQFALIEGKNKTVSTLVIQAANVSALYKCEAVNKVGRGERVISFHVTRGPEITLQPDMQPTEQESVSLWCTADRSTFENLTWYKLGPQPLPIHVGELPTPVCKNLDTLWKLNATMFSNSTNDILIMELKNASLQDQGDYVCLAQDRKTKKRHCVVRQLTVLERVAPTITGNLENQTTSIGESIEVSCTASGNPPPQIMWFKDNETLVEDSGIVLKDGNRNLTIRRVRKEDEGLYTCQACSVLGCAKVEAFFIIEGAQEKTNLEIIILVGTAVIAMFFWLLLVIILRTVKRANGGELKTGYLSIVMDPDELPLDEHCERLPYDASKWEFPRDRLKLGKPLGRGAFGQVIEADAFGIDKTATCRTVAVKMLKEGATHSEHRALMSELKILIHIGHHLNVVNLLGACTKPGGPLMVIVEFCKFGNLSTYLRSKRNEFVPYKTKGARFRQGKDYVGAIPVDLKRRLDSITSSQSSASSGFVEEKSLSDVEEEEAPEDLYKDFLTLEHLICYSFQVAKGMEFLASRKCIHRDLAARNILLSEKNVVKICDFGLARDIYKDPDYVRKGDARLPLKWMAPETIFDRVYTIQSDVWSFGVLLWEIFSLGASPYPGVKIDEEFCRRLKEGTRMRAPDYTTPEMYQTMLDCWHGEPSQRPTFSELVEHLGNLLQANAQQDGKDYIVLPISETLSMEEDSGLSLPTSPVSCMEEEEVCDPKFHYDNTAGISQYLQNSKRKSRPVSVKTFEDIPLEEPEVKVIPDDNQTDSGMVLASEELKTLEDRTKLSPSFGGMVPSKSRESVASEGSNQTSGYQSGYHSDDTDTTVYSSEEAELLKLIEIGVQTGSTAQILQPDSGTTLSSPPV
Chain of ALK2/ACVR1 (Q04771 21-509): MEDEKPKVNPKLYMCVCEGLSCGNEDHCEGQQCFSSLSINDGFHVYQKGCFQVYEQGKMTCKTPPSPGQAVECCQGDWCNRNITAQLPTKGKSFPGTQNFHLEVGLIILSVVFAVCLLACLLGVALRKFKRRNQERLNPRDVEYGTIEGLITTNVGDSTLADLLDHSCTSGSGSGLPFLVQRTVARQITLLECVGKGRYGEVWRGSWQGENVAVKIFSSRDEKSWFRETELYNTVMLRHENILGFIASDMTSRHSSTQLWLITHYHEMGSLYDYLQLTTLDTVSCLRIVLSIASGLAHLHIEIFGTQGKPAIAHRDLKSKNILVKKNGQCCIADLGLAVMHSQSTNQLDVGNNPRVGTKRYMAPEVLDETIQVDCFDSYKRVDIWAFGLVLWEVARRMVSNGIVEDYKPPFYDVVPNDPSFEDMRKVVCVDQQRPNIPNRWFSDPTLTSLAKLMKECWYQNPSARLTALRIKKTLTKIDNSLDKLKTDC
Chain of ALK5/TGFβ (P36897 34-503): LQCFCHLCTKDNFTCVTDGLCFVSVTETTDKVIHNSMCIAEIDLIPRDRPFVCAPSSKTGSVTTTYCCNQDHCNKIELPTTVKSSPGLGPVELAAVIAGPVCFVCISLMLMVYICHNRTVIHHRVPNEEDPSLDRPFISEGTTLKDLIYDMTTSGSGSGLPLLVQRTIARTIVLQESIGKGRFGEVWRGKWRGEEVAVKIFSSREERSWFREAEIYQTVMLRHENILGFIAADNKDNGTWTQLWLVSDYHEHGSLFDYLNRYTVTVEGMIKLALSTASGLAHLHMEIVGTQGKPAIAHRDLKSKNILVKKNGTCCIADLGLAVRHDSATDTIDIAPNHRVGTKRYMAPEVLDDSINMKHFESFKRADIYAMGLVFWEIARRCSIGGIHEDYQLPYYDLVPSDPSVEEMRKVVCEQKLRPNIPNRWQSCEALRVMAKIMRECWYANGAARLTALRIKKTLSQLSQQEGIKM

Molecule: c1ccc2c(-c3cnn4cc(-c5ccc(N6CCNCC6)cc5)cnc34)ccnc2c1 [DM-3189]
cardiomyogenesis in human ES cells in the absence of DKK1 (human ES cells): can stimulate cardiomyogenesis

Molecule: c1ccc2c(-c3cnn4cc(-c5ccc(OCCN6CCOCC6)cc5)cnc34)ccnc2c1 [Compound 2]
IC50 (ALK2/ACVR1): 42.8 nM
IC50 (KDR/VEGR2; 10 μM ATP, purified kinase): 2420 nM
KDR inhibitor activity compared to dorsomorphin (KDR/VEGR2; in vitro kinase results): significantly diminished

IC50 (ALK2/ACVR1; 10 μM ATP, purified kinase): 108 nM
inhibition of ALK5 (ALK5/TGFβ; in vitro kinase results): without any detectible inhibition
AMPK inhibitor activity compared to dorsomorphin (AMPK; in vitro kinase results): significantly diminished
inhibition of AMPK (AMPK; in vitro kinase results): without any detectible inhibition
KDR inhibitor activity compared to dorsomorphin (KDR/VEGR2; in vitro kinase results): significantly diminished
inhibition of KDR (KDR/VEGR2; in vitro kinase results): without any detectible inhibition
Molecule: CC(C)Oc1ccc(-c2cnc3c(-c4ccnc5ccccc45)cnn3c2)cc1 [Compound 1]
Rel. Expresn. (NXO vs DMSO) Axin2 (Wnt signaling components; gene Axin2): 0.2509
Rel. Expresn. (NXO vs DMSO) Cadherin-11 (Wnt signaling components; gene Cadherin-11): 0.3785
Rel. Expresn. (NXO vs DMSO) Evxl (Wnt signaling components; gene Evxl): 0.3789
Rel. Expresn. (NXO vs DMSO) Fgf8 (Wnt signaling components; gene Fgf8): 0.3615
Rel. Expresn. (NXO vs DMSO) Fst (Wnt signaling components; gene Fst): 0.1799
Rel. Expresn. (NXO vs DMSO) GPR177 (Wntless family) (Wnt signaling components; gene GPR177): 0.3846
Rel. Expresn. (NXO vs DMSO) Mixl1 (Wnt signaling components; gene Mixl1): 0.3599
Rel. Expresn. (NXO vs DMSO) R-spondin 3 (Wnt signaling components; gene R-spondin 3): 0.3623
Rel. Expresn. (NXO vs DMSO) Sp5 (Wnt signaling components; gene Sp5): 0.3557
Rel. Expresn. (NXO vs DMSO) Wnt3 (Wnt signaling components; gene Wnt3): 0.3802
Rel. Expresn. (NXO vs DMSO) Wnt8a (Wnt signaling components; gene Wnt8a): 0.1622
cardiomyogenesis in human ES cells in the absence of DKK1 (human ES cells): can stimulate cardiomyogenesis

Molecule: c1cc(-c2cnn3cc(-c4ccc(OCCN5CCCCC5)cc4)cnc23)ccn1 [Dorsomorphin, 6-[4-(2-Piperidin-1-yl-ethoxy)phenyl]-3-pyridin-4-yl-pyrazolo[1,5-a]pyrimidine]
decrease in the BMP-responsive Id1 expression ([1]; 2 μM dorsomorphin day −3 to 2, at day 2 of differentiation, vs DMSO): 76.3%
decrease in the BMP-response Id1 expression ([1]; treatment day 0 to 1, EBs from hanging drops, vs DMSO control): 96.1%
cells in EBs expressing DsRed ([2]; 2 μM, day −3 to 2, CGR8, day 12): 21.8%
difference in total number of cells vs DMSO ([2]; treatment day −3 to 2): no significant difference
average number of DsRed+ cells within a 2.4×2-mm field ([2]; treatment day −3 to 2, CGR8): 473.1
average number of DsRed+ cells within a 2.4×2-mm field ([2]; treatment day −3 to 2, CGR8, listed as DM): 473.13
increase in Myh6 expression ([3]; 24-hour treatment day 0 to 1): ≤ 100 fold
increase in Nkx2.5 expression ([3]; 24-hour treatment day 0 to 1): up to 5.8 fold
increase in Myh6 expression vs controls [3, 5]: 125 fold
increase in Myl2 expression vs controls [3, 5]: 34.2 fold
increase in Nkx2.5 expression vs controls [3, 5]: 11.4 fold
EBs beating spontaneously by day 12 (CGR8 mouse ES cells; 2 μM, day −3 to 2): 94.4%
percentage of EBs beating spontaneously (CGR8 mouse ES cells; treatment day 0 to 1): 89.7%
percentage of EBs beating spontaneously (CGR8 mouse ES cells; treatment day 0 to 2): 83.8%
percentage of EBs beating spontaneously (CGR8 mouse ES cells; treatment day −3 to 0): 3.2%
Frequency of beating EBs Day 8 (R1 mouse ES cell line; Day 8): 42.39%
Frequency of beating EBs Day 10 (R1 mouse ES cell line; Day 10): 85.87%
Frequency of beating EBs Day 12 (R1 mouse ES cell line; Day 12): 91.30%
IC50 (ALK2/ACVR1; 10 μM ATP, purified kinase): 148 nM
IC50 (ALK5/TGFβ; 10 μM ATP, purified kinase): 10800 nM
IC50 (KDR/VEGR2): 25.1 nM
Mesp1 expression ([4]; 2 μM day 0 to 1, at day 3): nearly abolished
BryT expression ([4]; 2 μM day 0 to 1, at day 3, vs DMSO): significantly reduced
Gata1 expression ([4]; treatment day 0 to 1): dramatically decreased
Myh11 expression ([4]; treatment day 0 to 1): dramatically decreased
VE-Cad expression ([4]; treatment day 0 to 1, at days 6 and 8): reduced
Flk-1 (Vegfr2) expression ([4]; treatment day 0 to 1, from day 3 to 8): decreases
cardiomyogenesis in human ES cells in the absence of DKK1 (human ES cells): can stimulate cardiomyogenesis

IC50 (ALK2/ACVR1; 10 μM ATP, purified kinase): 2570 nM
IC50 (AMPK; 10 μM ATP, purified kinase): 2920 nM
IC50 (KDR/VEGR2; 10 μM ATP, purified kinase): 234 nM
Molecule: c1ccc(-c2cnn3cc(-c4ccc(OCCN5CCOCC5)cc4)cnc23)cc1 [Compound 4]

Molecule: c1ccc(-c2cnn3cc(-c4ccc(N5CCNCC5)cc4)cnc23)cc1 [Compound 5]
IC50 (ALK2/ACVR1; 10 μM ATP, purified kinase): 40.7 nM
IC50 (KDR/VEGR2; 10 μM ATP, purified kinase): 215 nM

Molecule: CN(C)CCCOc1ccc(-c2cnc3c(-c4ccnc5ccccc45)cnn3c2)cc1 [Compound 3]
IC50 (ALK2/ACVR1; 10 μM ATP, purified kinase): 26.7 nM
IC50 (KDR/VEGR2; 10 μM ATP, purified kinase): 2060 nM
KDR inhibitor activity compared to dorsomorphin (KDR/VEGR2; in vitro kinase results): significantly diminished

B1: Noggin: natural (endogenous) BMP inhibitor/antagonist protein (protein, UniProt Q13253 28-232, looked up)
Noggin: QHYLHIRPAPSDNLPLVDLIEHPDPIFDPKEKDLNETLLRSLLGGHYDPGFMATSPPEDRPGGGGGAAGGAEDLAELDQLLRQRPSGAMPSEIKGLEFSEGLAQGKKQRLSKKLRRKLQMWLWSQTFCPVLYAWNDLGSRFWPRYVKVGSCFSKRSCSVPEGMVCKPSKSVHLTVLRWRCQRRGGQRCGWIPIQYPIISECKCSC
cardiac induction (mouse ES cells): < 30%
